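Method: 48-hour compound exposure of cells in 96-well plates, five concentrations, linear interpolation of endpoints. TGI: total growth inhibition.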
Experiments:
Experiment in all cases: inhibition of tumour cell growth, NCI panel, 48 h
[1] = tested on: A498 renal
[2] = tested on: BT-549 breast
[3] = tested on: IGROV1 ovarian
[4] = tested on: OVCAR-3 ovarian
[5] = tested on: SF-295 CNS
[6] = tested on: SN12C renal
[7] = tested on: SW-620 colon
[8] = tested on: UACC-257 melanoma
[9] = tested on: UACC-62 melanoma
[10] = tested on: UO-31 renal

CC(C)(C)c1cc(OCc2n[nH]c(=S)n2N)c(Cl)cc1OCc1n[nH]c(=S)n1N
TGI [1]: > 100 µM
TGI [2]: > 100 µM
TGI [3]: > 100 µM
TGI [4]: > 100 µM
TGI [5]: > 100 µM
TGI [6]: 94 µM
TGI [7]: > 100 µM
TGI [8]: > 100 µM
TGI [9]: 50.3 µM
TGI [10]: > 100 µM

O=C(N/N=C\c1ccc(Cl)cc1)Nc1cccc2ccccc12
TGI [1]: 7.13 µM
TGI [2]: > 100 µM
TGI [3]: > 25.8 µM
TGI [4]: 3.24 µM
TGI [5]: 6.2 µM
TGI [6]: 76 µM
TGI [7]: > 76.6 µM
TGI [8]: > 100 µM
TGI [9]: > 100 µM
TGI [10]: 4.84 µM

Clc1ccc2c(c1)CC1C[N+]3=C(CCCCC3)C1=C2 (centres undefined)
TGI [1]: > 100 µM
TGI [2]: > 100 µM
TGI [3]: > 100 µM
TGI [4]: > 100 µM
TGI [5]: > 100 µM
TGI [6]: > 100 µM
TGI [7]: > 100 µM
TGI [8]: 94.1 µM
TGI [9]: > 100 µM
TGI [10]: > 100 µM

CC(C)(C)C1CCC2c3c([nH]c4ccccc34)C3C(=O)N(c4cc(Cl)ccc4Cl)C(=O)C3C2C1 (centres undefined)
TGI [1]: > 100 µM
TGI [2]: > 100 µM
TGI [3]: > 100 µM
TGI [4]: > 100 µM
TGI [5]: > 100 µM
TGI [6]: > 100 µM
TGI [7]: > 100 µM
TGI [8]: > 100 µM
TGI [9]: > 100 µM
TGI [10]: > 100 µM

CCOC(=O)C(CCSC)(CCSC)C(=O)OCC
TGI [1]: > 100 µM
TGI [2]: > 100 µM
TGI [3]: > 100 µM
TGI [4]: > 100 µM
TGI [5]: > 100 µM
TGI [6]: > 100 µM
TGI [7]: > 100 µM
TGI [8]: > 100 µM
TGI [9]: 49.1 µM
TGI [10]: > 100 µM

COc1cccc(C2c3cc4c(cc3OC(NNC(N)=O)C2C)OCO4)c1OC (centres undefined)
TGI [1]: 51.1 µM
TGI [2]: > 100 µM
TGI [3]: 83.2 µM
TGI [4]: 50.2 µM
TGI [5]: 43.3 µM
TGI [6]: > 100 µM
TGI [7]: > 100 µM
TGI [8]: 92.1 µM
TGI [9]: 53 µM
TGI [10]: 86 µM

CC(Cn1c(=O)oc2ccccc21)N(C)C (centres undefined)
TGI [1]: > 100 µM
TGI [2]: > 100 µM
TGI [3]: > 100 µM
TGI [4]: > 100 µM
TGI [5]: > 100 µM
TGI [6]: > 100 µM
TGI [7]: > 100 µM
TGI [8]: > 100 µM
TGI [9]: > 100 µM

Oc1ccccc1CNCc1ccccc1O
TGI [1]: > 100 µM
TGI [2]: > 100 µM
TGI [3]: > 100 µM
TGI [4]: > 100 µM
TGI [5]: > 100 µM
TGI [6]: > 100 µM
TGI [7]: > 100 µM
TGI [8]: > 100 µM
TGI [9]: > 100 µM
TGI [10]: > 100 µM

O=C(Nc1ccccc1)c1cc2cc(CCl)ccc2oc1=O
TGI [1]: 26.1 µM
TGI [2]: > 100 µM
TGI [3]: > 100 µM
TGI [4]: > 100 µM
TGI [5]: > 100 µM
TGI [6]: > 100 µM
TGI [7]: > 100 µM
TGI [8]: > 100 µM
TGI [9]: 32.8 µM
TGI [10]: > 100 µM

O=C1Nc2n[nH]c(=S)n2NC12c1ccccc1-c1ccccc12
TGI [1]: > 100 µM
TGI [2]: > 100 µM
TGI [3]: > 100 µM
TGI [4]: > 100 µM
TGI [5]: > 100 µM
TGI [6]: > 100 µM
TGI [7]: > 100 µM
TGI [8]: 48.4 µM
TGI [9]: 68.1 µM
TGI [10]: > 100 µM

Nc1n[nH]c(N)n1
TGI [1]: > 10000 µM
TGI [2]: > 10000 µM
TGI [3]: > 7740 µM
TGI [4]: > 10000 µM
TGI [5]: 7800 µM
TGI [6]: > 8900 µM
TGI [7]: > 10000 µM
TGI [8]: > 9050 µM
TGI [9]: 7470 µM
TGI [10]: > 10000 µM

CCCCCCc1cc2cc(-c3cn4ccccc4n3)c(=O)oc2cc1O
TGI [1]: 50.7 µM
TGI [2]: 22.1 µM
TGI [3]: 27.7 µM
TGI [4]: 15.7 µM
TGI [5]: 34.1 µM
TGI [6]: 17.5 µM
TGI [7]: > 53.6 µM
TGI [8]: 50.9 µM
TGI [9]: 20.6 µM
TGI [10]: 20.7 µM

CC1=NC(=O)CNN1C1=NNC2(C(=O)N1)c1ccccc1-c1ccccc12
TGI [1]: > 100 µM
TGI [2]: > 100 µM
TGI [3]: > 100 µM
TGI [4]: > 100 µM
TGI [5]: > 100 µM
TGI [6]: > 100 µM
TGI [7]: > 100 µM
TGI [8]: > 100 µM
TGI [9]: > 100 µM
TGI [10]: > 100 µM

C[C@@]12C[C@@H](c3ccccc3O1)N1CCCSC1=N2
TGI [1]: > 100 µM
TGI [2]: > 100 µM
TGI [3]: > 100 µM
TGI [4]: > 100 µM
TGI [5]: > 100 µM
TGI [6]: > 100 µM
TGI [7]: > 100 µM
TGI [8]: > 100 µM
TGI [9]: > 100 µM
TGI [10]: > 100 µM

COC(=O)CCc1cc(OC)c2oc(-c3ccc(OC)c(OC)c3)c(CO)c2c1
TGI [1]: > 100 µM
TGI [2]: > 100 µM
TGI [3]: > 100 µM
TGI [4]: > 100 µM
TGI [5]: > 100 µM
TGI [6]: > 100 µM
TGI [7]: > 100 µM
TGI [8]: > 100 µM
TGI [9]: > 100 µM
TGI [10]: > 100 µM

CC(=O)O[C@H]1C(=O)[C@@]2(C)[C@H]([C@H](OC(=O)c3ccccc3)[C@]3(O)C[C@H](OC(=O)[C@H](O)[C@@H](NC(=O)OC(C)(C)C)c4ccco4)C(C)=C1C3(C)C)[C@]1(OC(C)=O)CO[C@@H]1C[C@@H]2O
TGI [1]: 22.7 µM
TGI [2]: < 0.005 µM
TGI [3]: > 50 µM
TGI [4]: 0.0471 µM
TGI [5]: < 0.005 µM
TGI [6]: 36.3 µM
TGI [7]: > 50 µM
TGI [8]: > 47.2 µM
TGI [9]: > 33.4 µM
TGI [10]: > 34.9 µM

Cc1cc(S(=O)(=O)Nc2nnc3c(Cl)cc(C(F)(F)F)cn23)c(S)cc1Cl
TGI [1]: > 100 µM
TGI [2]: > 100 µM
TGI [3]: > 100 µM
TGI [4]: > 100 µM
TGI [5]: > 100 µM
TGI [6]: > 100 µM
TGI [7]: > 100 µM
TGI [8]: > 100 µM
TGI [9]: > 100 µM
TGI [10]: > 100 µM

— PubChem BioAssay (NCI)
